Test results reported in PubChem BioAssay AID330 (DTP/NCI, 2004).
“And” between values parts separate entries of the source, which are not always exact repeats. Equal entries are not always repeated. Inconclusive results and toxic doses are left out.

Test system: P388 leukemia ip, CD2F1 mice, survival T/C
Test: NCI In Vivo Anticancer Drug Screen. Data for tumor model P388 Leukemia (intraperitoneal) in CD2F1 (CDF1) mice
Details: endpoint: median survival time, higher = longer survival
Procedure, shortened: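 Mice carrying the transplanted tumor received test compound or vehicle. Survival was recorded in each group, and the value is the treated-group measurement divided by that of the vehicle-treated control group.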

[1] = dose: 100.0 mg/kg/injection, schedule: Q04DX003 (ip), vehicle: saline with Tween-80
[2] = dose: 200.0 mg/kg/injection, schedule: Q04DX003 (ip), vehicle: saline with Tween-80
[3] = dose: 400.0 mg/kg/injection, schedule: Q04DX003 (ip), vehicle: saline with Tween-80
[4] = dose: 60.0 mg/kg/injection, schedule: Q01DX005 (ip), vehicle: Klucel (hydroxypropylcellulose) (HPC)
[5] = dose: 120.0 mg/kg/injection, schedule: Q01DX005 (ip), vehicle: Klucel (hydroxypropylcellulose) (HPC)
[6] = dose: 240.0 mg/kg/injection, schedule: Q01DX005 (ip), vehicle: Klucel (hydroxypropylcellulose) (HPC)
[7] = dose: 100.0 mg/kg/injection, schedule: Q01DX009 (ip), vehicle: saline with Tween-80
[8] = dose: 200.0 mg/kg/injection, schedule: Q01DX009 (ip), vehicle: saline with Tween-80
[9] = dose: 50.0 mg/kg/injection, schedule: Q01DX009 (ip), vehicle: saline with Tween-80
[10] = dose: 60.0 mg/kg/injection, schedule: Q01DX005 (ip), vehicle: saline with Tween-80
[11] = dose: 120.0 mg/kg/injection, schedule: Q01DX005 (ip), vehicle: saline with Tween-80
[12] = dose: 240.0 mg/kg/injection, schedule: Q01DX005 (ip), vehicle: saline with Tween-80
[13] = dose: 25.0 mg/kg/injection, schedule: Q01DX005 (ip), vehicle: Klucel (hydroxypropylcellulose) (HPC)
[14] = dose: 50.0 mg/kg/injection, schedule: Q01DX005 (ip), vehicle: Klucel (hydroxypropylcellulose) (HPC)
[15] = dose: 100.0 mg/kg/injection, schedule: Q01DX005 (ip), vehicle: Klucel (hydroxypropylcellulose) (HPC)
[16] = dose: 200.0 mg/kg/injection, schedule: Q01DX005 (ip), vehicle: Klucel (hydroxypropylcellulose) (HPC)
[17] = dose: 12.5 mg/kg/injection, schedule: Q01DX009 (ip), vehicle: saline
[18] = dose: 25.0 mg/kg/injection, schedule: Q01DX009 (ip), vehicle: saline

## S=c1nc[nH]c2c1ncn2C1CCCC1
[1]
  T/C: 104 % of control
[2]
  T/C: 104 % of control
[3]
  T/C: 90 % of control

## O=C1NNC=Nc2nc3c(cc21)CCCC3
[4]
  T/C: 98 % of control
[5]
  T/C: 92 % of control
[6]
  T/C: 94 % of control

## CCOC(=O)CCC1(C(=O)OC)C(=O)CCCCCCC1C(=O)OC (centres undefined)
[7]
  T/C: 95 % of control
[8]
  T/C: 100 % of control
dose: 400.0 mg/kg/injection, schedule: Q01DX009 (ip), vehicle: saline with Tween-80
  T/C: 100 % of control

## CCOC1CC(C)(C)c2c(-c3ccccc3)nn(-c3ccccc3)c2O1 (centres undefined)
[9]
  T/C: 94 % of control
[7]
  T/C: 100 % of control
[8]
  T/C: 98 % of control

## COC(=O)[C@@H]1CC/C(=C(\C#N)C(=O)OC(C)(C)C)N1
[10]
  T/C: 95 % of control
[11]
  T/C: 96 % of control
[12]
  T/C: 91 % of control

## CC(=O)Nc1ccc(/C=C/c2csnn2)cc1
[10]
  T/C: 92 % of control
[11]
  T/C: 87 % of control
[12]
  T/C: 92 % of control

## CCC[CH2][Sn]([F])([CH2]CCC)[O][Sn]([F])([CH2]CCC)[CH2]CCC
dose: 100.0 mg/kg/injection, schedule: Q04DX003 (ip), vehicle: saline
  T/C: 101 % of control
dose: 200.0 mg/kg/injection, schedule: Q04DX003 (ip), vehicle: saline
  T/C: 105 % of control

## C[Si](C)(C)C12CC3(CCCCC3)C1NC(=O)NC2=O (centres undefined)
[13]
  T/C: 108 % of control
[14]
  T/C: 96 % of control
[15]
  T/C: 90 % of control
[16]
  T/C: 88 % of control

## Cc1cc(=O)[nH]c2cc3oc4ccccc4c3cc12
[10]
  T/C: 98 % of control
[11]
  T/C: 102 % of control
[12]
  T/C: 103 % of control

## COc1ccccc1C1OC(=N)C(=S)N1C (centres undefined)
[4]
  T/C: 107 % of control
[5]
  T/C: 111 % of control
[6]
  T/C: 113 % of control

## O=Nc1c(O)c2ccccc2c2ccccc12
[13]
  T/C: 102 % of control
[14]
  T/C: 102 % of control
[15]
  T/C: 112 % of control

## CN(CCN(C)C(=S)SCc1ccccc1)C(=S)SCc1ccccc1
dose: 6.25 mg/kg/injection, schedule: Q01DX009 (ip), vehicle: Klucel (hydroxypropylcellulose) (HPC)
  T/C: 100 % of control
dose: 12.5 mg/kg/injection, schedule: Q01DX009 (ip), vehicle: Klucel (hydroxypropylcellulose) (HPC)
  T/C: 116 % of control
dose: 25.0 mg/kg/injection, schedule: Q01DX009 (ip), vehicle: Klucel (hydroxypropylcellulose) (HPC)
  T/C: 105 % of control

## Cc1nc2c(sc(=N)n2-c2ccccc2)c(=O)[nH]1
dose: 12.5 mg/kg/injection, schedule: Q01DX009 (ip), vehicle: saline with Tween-80
  T/C: 115 % of control
dose: 25.0 mg/kg/injection, schedule: Q01DX009 (ip), vehicle: saline with Tween-80
  T/C: 106 % of control
[9]
  T/C: 103 % of control

## Nc1nc2c(c(=O)[nH]1)CN(CCCN1CCN(CCCN3CNc4nc(N)[nH]c(=O)c4C3)CC1)CN2
[14]
  T/C: 94 % of control
[15]
  T/C: 99 % of control
[16]
  T/C: 91 % of control

## COC(=O)C(=O)C1CSC2=C(CS(=O)(=O)c3ccccc32)C1=O (centres undefined)
[10]
  T/C: 98 % of control
[11]
  T/C: 104 % of control
[12]
  T/C: 104 % of control

## NCCNCC[OH2+].NCCNCC[OH2+].O=[N+]([O-])[O-].[Ni+2]
[17]
  T/C: 93 % of control
[18]
  T/C: 102 % of control

## CNc1nc(=S)nc(-c2ccccc2)s1
dose: 50.0 mg/kg/injection, schedule: Q01DX005 (ip), vehicle: saline with Tween-80
  T/C: 100 % of control
dose: 100.0 mg/kg/injection, schedule: Q01DX005 (ip), vehicle: saline with Tween-80
  T/C: 106 % of control
dose: 200.0 mg/kg/injection, schedule: Q01DX005 (ip), vehicle: saline with Tween-80
  T/C: 92 % of control

## O=C1c2cc(Cl)ccc2OC2CCON12 (centres undefined)
dose: 50.0 mg/kg/injection, schedule: Q01DX009 (ip), vehicle: Klucel (hydroxypropylcellulose) (HPC)
  T/C: 108 % of control
dose: 100.0 mg/kg/injection, schedule: Q01DX009 (ip), vehicle: Klucel (hydroxypropylcellulose) (HPC)
  T/C: 110 % of control
dose: 200.0 mg/kg/injection, schedule: Q01DX009 (ip), vehicle: Klucel (hydroxypropylcellulose) (HPC)
  T/C: 116 % of control

## CCOC(=O)C(=CNc1ccc2c(C)cc3ccc(C(=O)OCC)c(=O)n3c2n1)C(=O)OCC
[14]
  T/C: 88 % of control
[15]
  T/C: 86 % of control

## c1ccc(-c2cn3ccsc3n2)cc1
dose: 25.0 mg/kg/injection, schedule: Q01DX009 (ip), vehicle: other
  T/C: 109 % of control
dose: 50.0 mg/kg/injection, schedule: Q01DX009 (ip), vehicle: other
  T/C: 115 % of control
dose: 100.0 mg/kg/injection, schedule: Q01DX009 (ip), vehicle: other
  T/C: 115 % of control
dose: 200.0 mg/kg/injection, schedule: Q01DX009 (ip), vehicle: other
  T/C: 115 % of control

## CCC1CC2CN(CCc3c([nH]c4ccccc34)C(C(=O)OC)(c3cc4c(cc3OC)N(C)C3C(O)(C(=O)OC)C(OC(C)=O)C5(CC)CCCN6CCC43C65)C2)C1 (centres undefined)
dose: 1.0 mg/kg/injection, schedule: Q01DX001 (ip), vehicle: water
  T/C: 124 % of control
dose: 2.0 mg/kg/injection, schedule: Q01DX001 (ip), vehicle: water
  T/C: 122 % of control
dose: 16.0 mg/kg/injection, schedule: Q01DX001 (ip), vehicle: water
  T/C: 153 % of control and 154 % of control
dose: 32.0 mg/kg/injection, schedule: Q01DX001 (ip), vehicle: water
  T/C: 163 % of control

## Cc1cc[n+](CC(N)=O)cc1
[17]
  T/C: 96 % of control
[18]
  T/C: 94 % of control
dose: 50.0 mg/kg/injection, schedule: Q01DX009 (ip), vehicle: saline
  T/C: 96 % of control

## Cc1ccc(-c2nc3n(c2/C=N/NC(N)=S)CCS3)cc1
dose: 100.0 mg/kg/injection, schedule: Q01DX001 (ip), vehicle: saline with Tween-80
  T/C: 109 % of control
dose: 200.0 mg/kg/injection, schedule: Q01DX001 (ip), vehicle: saline with Tween-80
  T/C: 103 % of control
dose: 400.0 mg/kg/injection, schedule: Q01DX001 (ip), vehicle: saline with Tween-80
  T/C: 97 % of control

## CC(=N\O)/C(=N/O)c1ccccc1
dose: 50.0 mg/kg/injection, schedule: Q04DX003 (ip), vehicle: saline with Tween-80
  T/C: 106 % of control
[1]
  T/C: 98 % of control
[2]
  T/C: 98 % of control
[3]
  T/C: 104 % of control

## COc1cc(OC)c2c[n+](C)c3c4cc(OC)c(OC)cc4ccc3c2c1
dose: 20.0 mg/kg/injection, schedule: Q01DX009 (ip), vehicle: saline with Tween-80
  T/C: 161 % of control
dose: 40.0 mg/kg/injection, schedule: Q01DX009 (ip), vehicle: saline with Tween-80
  T/C: 169 % of control

## CN(C)CCCOc1nc2c(c(=O)n(C)c(=O)n2C)n1C (tested in a mixture with another compound)
dose: 6.25 mg/kg/injection, schedule: Q01DX005 (ip), vehicle: Klucel (hydroxypropylcellulose) (HPC)
  T/C: 100 % of control
dose: 12.5 mg/kg/injection, schedule: Q01DX005 (ip), vehicle: Klucel (hydroxypropylcellulose) (HPC)
  T/C: 106 % of control
[13]
  T/C: 110 % of control

## CCOP(=O)(O)OCC
dose: 100.0 mg/kg/injection, schedule: Q04DX003 (ip), vehicle: Klucel (hydroxypropylcellulose) (HPC)
  T/C: 93 % of control
dose: 200.0 mg/kg/injection, schedule: Q04DX003 (ip), vehicle: Klucel (hydroxypropylcellulose) (HPC)
  T/C: 89 % of control
dose: 400.0 mg/kg/injection, schedule: Q04DX003 (ip), vehicle: Klucel (hydroxypropylcellulose) (HPC)
  T/C: 96 % of control

## CCN(CC)CCCC(C)NC(=O)c1ccc2c(c1O)C(=O)c1ccccc1C2=O (centres undefined)
dose: 1.25 mg/kg/injection, schedule: Q01DX009 (ip), vehicle: water
  T/C: 100 % of control and 102 % of control
dose: 2.5 mg/kg/injection, schedule: Q01DX009 (ip), vehicle: water
  T/C: 101 % of control and 105 % of control
dose: 5.0 mg/kg/injection, schedule: Q01DX009 (ip), vehicle: water
  T/C: 106 % of control and 108 % of control
dose: 10.0 mg/kg/injection, schedule: Q01DX009 (ip), vehicle: water
  T/C: 99 % of control and 101 % of control and 94 % of control
dose: 20.0 mg/kg/injection, schedule: Q01DX009 (ip), vehicle: water
  T/C: 99 % of control and 101 % of control

## C1CN2CCOC2O1
dose: 60.0 mg/kg/injection, schedule: Q01DX005 (ip), vehicle: saline
  T/C: 100 % of control
dose: 120.0 mg/kg/injection, schedule: Q01DX005 (ip), vehicle: saline
  T/C: 101 % of control
dose: 240.0 mg/kg/injection, schedule: Q01DX005 (ip), vehicle: saline
  T/C: 99 % of control
